Here are results for ten compounds from US8530387B2, “Dithiinopyridazinone derivatives” (Bayer CropScience AG, priority 2010, dated 2013).

A short description of series [1]: logP by HPLC on reversed-phase column (C18), EEC Directive 79/831 Annex V.A8. Type of series: physicochemical. To be noted: for Log P: pH 2.7. As to the method: The logP values reported in the preparation examples and tables above are determined in accordance with EEC Directive 79/831 Annex V.A8 by means of HPLC (High Performance Liquid Chromatography) on a reversed-phase column (C18). Temperature: 43° C. […] Calibration takes place using unbranched alkan-2-ones (having 3 to 16 carbon atoms) of which the logP values are known (logP values determined on the basis of the retention times, by linear interpolation between two successive alkanones). The lambda-max values were determined on the basis of the UV spectra from 200 nm to 400 nm in the maxima of the chromatographic signals.

Another series deals with Puccinia recondita. The series is described as follows: Puccinia test (wheat)/protective. Type of series: in vivo. The following applies: young wheat plants, protective spray, 1500 ppm, evaluation 7-9 days following inoculation. The source says:
Puccinia Test (Wheat)/Protective • Solvent: 49 parts by weight of N,N-dimethylformamide • Emulsifier: 1 part by weight of alkylaryl polyglycol ether An appropriate preparation of active compound is produced by mixing 1 part by weight of active compound with the stated amounts of solvent and emulsifier and diluting the concentrate with water to the desired concentration. To test for protective activity, young wheat plants are sprayed with the preparation of active compound at the stated application rate. […] Subsequently the plants stand at 80% relative humidity and at a temperature of 20° C. After 7-9 days following inoculation, evaluation takes place.

In the next series the test system is Alternaria solani. In words: Alternaria test (tomato)/protective. Type of series: in vivo. To be noted: young tomato plants, protective spray, 1500 ppm, evaluation 7 days following inoculation. The source says:
Alternaria Test (Tomato)/Protective • Solvent: 49 parts by weight of N,N-dimethylformamide • Emulsifier: 1 part by weight of alkylaryl polyglycol ether An appropriate preparation of active compound is produced by mixing 1 part by weight of active compound with the stated amounts of solvent and emulsifier and diluting the concentrate with water to the desired concentration. To test for protective activity, young tomato plants are sprayed with the preparation of active compound at the stated application rate. […] Subsequently the plants stand at 96% relative humidity and a temperature of 20° C. After 7 days following inoculation, evaluation takes place.

Another series deals with Phytophthora infestans. Type of series: in vivo. The following applies: young tomato plants, protective spray, 1500 ppm, evaluation 7 days following inoculation.
The test system of a further series is Plasmopara viticola. The series is described as follows: Plasmopara test (grapevine)/protective. Format: in vivo. The following applies: young grapevine plants, protective spray, 250 ppm, evaluation 6 days following inoculation.
In the next series the test system is Venturia inaequalis. The series is described as follows: Venturia test (apple)/protective. Type of series: in vivo. To be noted: young apple plants, protective spray, 250 ppm, evaluation 10 days following inoculation. As to the method: Venturia Test (Apple)/Protective […] An appropriate preparation of active compound is produced by mixing 1 part by weight of active compound with the stated amounts of solvent and emulsifier and diluting the concentrate with water to the desired concentration. To test for protective activity, young plants are sprayed with the preparation of active compound at the stated application rate. […] Subsequently the plants are placed in a greenhouse at approximately 21° C. and approximately 90% humidity. After 10 days following inoculation, evaluation takes place.

Molecules are shown by their SMILES.

On to `Cn1c(=O)c2c(c(=O)n1C)SC(C#N)=C(C#N)S2` [Compound 1], for which the log partition coefficient (Log P) in series [1] was 1.39. In addition, the Efficacy in % in the series with Puccinia recondita is listed as 90%.

Regarding `N#CC1=C(C#N)Sc2c(c(=O)n3n(c2=O)CCCC3)S1` [Compound 2, 5,12-dioxo-5,7,8,9,10,12-hexahydro[1,4]dithiino[2,3-d]pyridazino[1,2-a]pyridazine-2,3-dicarbonitrile], the chromatographic logP in series [1] (HPLC, C18, 43° C., acidic range pH 2.7 (0.1% aqueous formic acid/acetonitrile), read-out: Log P) stood at 1.74. In addition, the Efficacy in % with Alternaria solani is 93%; with Phytophthora infestans, 88%; with Plasmopara viticola it was 100%; with Puccinia recondita, 95%; in the series on Venturia inaequalis, 89%.

For the compound `CCn1c(=O)c2c(c(=O)n1CC)SC(C#N)=C(C#N)S2` [Compound 3], the lipophilicity (Log P) in series [1] is 2.05. The Efficacy in % is 86% in the series with Alternaria solani, 75% with Phytophthora infestans and 95% with Puccinia recondita.

Turning to `CCCn1c(=O)c2c(c(=O)n1CCC)SC(C#N)=C(C#N)S2` [Compound 4], in series [1], the log partition coefficient (Log P) was determined as 2.80. Moreover, the figures for the Efficacy in % with Alternaria solani, in the series on Phytophthora infestans and with Puccinia recondita were 93%, 94% and 95%, respectively.

Turning to `CCCn1c(=O)c2c(c(=O)n1CC)SC(C#N)=C(C#N)S2` [Compound 5], the “Log P” value in series [1] is 2.46. For the same compound, the Efficacy in % with Alternaria solani is listed as 93%; in the series on Phytophthora infestans, 94%; with Plasmopara viticola, 95%; in the series on Puccinia recondita, 95%; in the series on Venturia inaequalis, 95%.

Turning to `N#CC1=C(C#N)Sc2c(c(=O)n3n(c2=O)CCOCC3)S1` [Compound 6], the “Log P” value in series [1] was 1.51. Also, the values for the Efficacy in % in the series on Alternaria solani, in the series with Phytophthora infestans and in the series on Puccinia recondita were 86%, 75% and 95%, respectively.

For the compound `CCCn1c(=O)c2c(c(=O)n1C)SC(C#N)=C(C#N)S2` [Compound 7], in series [1], the “Log P” value turned out to be 2.08. Moreover, the Efficacy in % in the series with Alternaria solani was 93%; with Phytophthora infestans it was 88%; in the series on Puccinia recondita, 80%.

Take `N#CC1=C(C#N)Sc2c(c(=O)n3n(c2=O)CCC3)S1` [Compound 8]: the “Log P” value in series [1] was found to be 1.20. Further, the figures for the Efficacy in % with Alternaria solani, with Phytophthora infestans and in the series on Puccinia recondita were 86%, 75% and 95%, respectively.

On to `CCn1c(=O)c2c(c(=O)n1C)SC(C#N)=C(C#N)S2` [Compound 9], for which the log partition coefficient (Log P) in series [1] came to 1.72. For the same compound, the Efficacy in % with Alternaria solani is given as 86%; in the series on Phytophthora infestans, 94%; in the series on Plasmopara viticola, 93%; in the series on Puccinia recondita, 95%; in the series on Venturia inaequalis, 86%.

Regarding `Cn1c(=O)c2c(c(=O)n1C)Sc1c(c(=O)n(C)n(C)c1=O)S2` [Compound 10], the log partition coefficient (Log P) in series [1] is recorded as 0.74.
